Source: ChEMBL document CHEMBL6153146, “Secondary Metabolites of the Lichen Lethariella cladonioides and Their Neuroprotective Potential” (J Nat Prod, 2025)
Calls of active or inactive are those of the source. The calls are words filed in the database; no cut-off is given here.

Key:
RAW264.7 [1] = test: Anti-inflammatory activity in mouse RAW264.7 cells assessed as alleviation of LPS-induced IL-1 beta mRNA expression level at 10 to 40 uM by qRT-PCR analysis; type: functional, cell-based; settings: dose 10-40 µM
RAW264.7 [2] = test: Anti-inflammatory activity in mouse RAW264.7 cells assessed as inhibition of LPS-induced NO production incubated for 36 hrs by Griess assay; type: functional, cell-based; settings: for IC50: RAW264.7, 36 h
RAW264.7 [3] = test: Anti-inflammatory activity in mouse RAW264.7 cells assessed as alleviation of LPS-induced IL-6 mRNA expression level at 10 to 40 uM by qRT-PCR analysis; type: functional, cell-based; settings: dose 10-40 µM
RAW264.7 [4] = test: Anti-inflammatory activity in mouse RAW264.7 cells assessed as alleviation of LPS-induced COX-2 mRNA expression level at 10 to 40 uM by qRT-PCR analysis; type: functional, cell-based; settings: dose 10-40 µM
RAW264.7 [5] = test: Anti-inflammatory activity in mouse RAW264.7 cells assessed as alleviation of LPS-induced TNF-alpha mRNA expression level at 10 to 40 uM by qRT-PCR analysis; type: functional, cell-based; settings: dose 10-40 µM
Acetylcholinesterase = Acetylcholinesterase (Homo sapiens, UniProt P22303); test: Inhibition of AChe (unknown origin) incubated for 0.25 hrs by DTNB-reagent based Ellman's method
RAW264.7 [6] = test: Anti-inflammatory activity in mouse RAW264.7 cells assessed as downregulation of the LPS-induced IL-10 mRNA expression at 12.5 to 50 uM by qRT-PCR analysis; type: functional, cell-based; settings: dose 12.5-50 µM
RAW264.7 [7] = test: Anti-inflammatory activity in mouse RAW264.7 cells assessed as alleviation of LPS-induced IL-1 beta mRNA expression level at 12.5 to 50 uM by qRT-PCR analysis; type: functional, cell-based; settings: dose 12.5-50 µM
RAW264.7 [8] = test: Anti-inflammatory activity in mouse RAW264.7 cells assessed as alleviation of LPS-induced IL-6 mRNA expression level at 12.5 to 50 uM by qRT-PCR analysis; type: functional, cell-based; settings: dose 12.5-50 µM
RAW264.7 [9] = test: Anti-inflammatory activity in mouse RAW264.7 cells assessed as downregulation of the LPS-induced iNOS expression at 12.5 to 50 uM by qRT-PCR analysis; type: functional, cell-based; settings: dose 12.5-50 µM
RAW264.7 [10] = test: Anti-inflammatory activity in mouse RAW264.7 cells assessed as alleviation of LPS-induced cox-2 mRNA expression level at 12.5 to 50 uM by qRT-PCR analysis; type: functional, cell-based; settings: dose 12.5-50 µM
RAW264.7 [11] = test: Anti-inflammatory activity in mouse RAW264.7 cells assessed as alleviation of LPS-induced TNF-alpha mRNA expression level at 12.5 to 50 uM by qRT-PCR analysis; type: functional, cell-based; settings: dose 12.5-50 µM

Sequence of Acetylcholinesterase (P22303 whole entry): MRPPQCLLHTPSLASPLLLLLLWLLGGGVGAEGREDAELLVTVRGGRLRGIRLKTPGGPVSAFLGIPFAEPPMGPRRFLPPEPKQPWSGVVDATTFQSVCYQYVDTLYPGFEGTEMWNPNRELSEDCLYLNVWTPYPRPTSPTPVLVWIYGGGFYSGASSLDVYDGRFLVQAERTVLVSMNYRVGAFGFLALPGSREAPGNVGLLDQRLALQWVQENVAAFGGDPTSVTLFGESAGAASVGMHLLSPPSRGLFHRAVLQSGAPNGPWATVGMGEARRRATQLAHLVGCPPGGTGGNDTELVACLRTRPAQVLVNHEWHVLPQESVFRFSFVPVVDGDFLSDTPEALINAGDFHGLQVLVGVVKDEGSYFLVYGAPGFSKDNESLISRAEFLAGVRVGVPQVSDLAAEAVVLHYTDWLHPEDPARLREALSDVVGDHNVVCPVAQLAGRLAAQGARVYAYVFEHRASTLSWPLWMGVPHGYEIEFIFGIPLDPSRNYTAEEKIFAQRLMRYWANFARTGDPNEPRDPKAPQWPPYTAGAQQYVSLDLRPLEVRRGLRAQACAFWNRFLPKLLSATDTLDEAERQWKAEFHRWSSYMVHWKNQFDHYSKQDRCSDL

Structure (SMILES) | Activity (RAW264.7 [2]) | IC50 (Acetylcholinesterase) [µM] | other results
COC(=O)c1c(C)cc(O)c(Cc2c(C)c(C(=O)OC)c(O)c(C)c2O)c1O | – | – | Activity (RAW264.7 [1]): Active; IC50 (RAW264.7 [2]): 20 µM; Activity (RAW264.7 [3]): Active; Activity (RAW264.7 [4]): Active; Activity (RAW264.7 [5]): Active
OCc1cc(O)cc(O)c1 | inactive | 28 | –
Cc1cc(O)c(C)c(O)c1 | inactive | 25 | –
CCOC(=O)c1c(O)cc(O)c(Cc2c(O)cc(C)c(C(=O)OCC)c2O)c1C | inactive | 19 | –
CCOC(=O)c1c(O)cc(O)c(Cc2c(O)cc(C)c(C(=O)OC)c2O)c1C | – | 20 | IC50 (RAW264.7 [2]): 35 µM; Activity (RAW264.7 [6]): Active
Cc1cc(O)cc(O)c1C(=O)O [ORSELLINIC ACID] | inactive | 26 | –
CC(=O)C1=C(O)C=C2Oc3c(C(C)=O)c(O)c(C)c(O)c3[C@@]2(C)C1=O [(+)-USNIC ACID] | inactive | 28 | –
COC(=O)c1c(C)cc(O)c(Cc2c(O)cc(C)cc2O)c1O | inactive | 15 | –
COCc1c(O)c(Oc2c(C=O)c(O)cc(C)c2C(=O)OC)c2c(c1O)C(=O)O[C@H]2O | inactive | 7.1 | –
CCOC(=O)c1c(C)cc(OC(=O)c2c(C)cc(O)cc2O)cc1O | inactive | 15 | –
COC(=O)c1c(C)cc(O)cc1O [METHYL ORSELLINATE] | inactive | 24 | –
CCOC(=O)c1c(C)cc(O)c(Cc2c(C)c(C(=O)OC)c(O)c(C)c2O)c1O | – | – | IC50 (RAW264.7 [2]): 28 µM; Activity (RAW264.7 [7]): Active; Activity (RAW264.7 [8]): Active; Activity (RAW264.7 [9]): Active; Activity (RAW264.7 [10]): Active; Activity (RAW264.7 [11]): Active
Cc1cc(O)cc(OC(=O)c2c(C)cc(O)c(C=O)c2O)c1 | inactive | 15 | –
